Each block holds one compound with its values, some of them ahead of it.
Key:
STP10 [1] = molecular target: T1, STP10 (Arabidopsis thaliana, UniProt Q9LT15); experiment: [3H]-2-deoxy-D-glucose uptake in yeast EBY-WV4000; assay type: cell-based; conditions: pH 5.0; 30 °C; labelled compound
T1 construct: full length 514 residues; S. cerevisiae expression, C-terminal thrombin site and His10 tag, tag cut with thrombin for structure (model residues 21-507, monomer); STP10 gene subcloned for Xenopus oocyte and yeast EBY-WV4000 uptake
T1 sequence (Q9LT15 1-514): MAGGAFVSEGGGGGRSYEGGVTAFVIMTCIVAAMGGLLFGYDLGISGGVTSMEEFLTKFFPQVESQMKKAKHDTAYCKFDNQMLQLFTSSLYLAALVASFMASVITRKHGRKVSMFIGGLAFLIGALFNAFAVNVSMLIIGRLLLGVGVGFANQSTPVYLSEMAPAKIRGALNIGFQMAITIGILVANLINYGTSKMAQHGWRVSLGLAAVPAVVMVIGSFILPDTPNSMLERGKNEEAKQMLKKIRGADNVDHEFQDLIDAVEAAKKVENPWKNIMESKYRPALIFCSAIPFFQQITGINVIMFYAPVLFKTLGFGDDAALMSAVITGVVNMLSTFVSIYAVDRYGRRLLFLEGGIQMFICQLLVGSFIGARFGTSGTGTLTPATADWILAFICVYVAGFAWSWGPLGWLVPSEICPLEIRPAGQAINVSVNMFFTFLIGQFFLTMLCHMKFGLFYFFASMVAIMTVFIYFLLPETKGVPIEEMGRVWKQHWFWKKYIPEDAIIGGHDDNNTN

STP10 [2] = molecular target: T1, STP10; experiment: competition with [3H]-D-glucose uptake in yeast EBY-WV4000; assay type: cell-based; conditions: pH 5.0; 30 °C; 250 µM competitor against 10 µM D-glucose
STP10 [3] = molecular target: T1, STP10; experiment: X-ray crystal structure, […] Å; conditions: central binding site; outward occluded state; lipidic cubic phase, pH 4.5
STP10 [4] = molecular target: T1, STP10; experiment: isothermal titration calorimetry, purified protein, one-site model; conditions: pH 5.5; 20 °C; 0.03% DDM; read-out: apparent Kd

SMILES: OC[C@H]1OC(O)C[C@@H](O)[C@@H]1O (some centres unmarked) [2-deoxyglucose]
[3H]-2-deoxy-D-glucose uptake in yeast EBY-WV4000 (STP10 [1]): The protein can transport the non-metabolized glucose analog 2-deoxyglucose

SMILES: OC[C@H]1OC(O)[C@H](O)[C@@H](O)[C@H]1O (some centres unmarked) [galactose]
competition (STP10 [2]): Competition assays using radioactively labeled glucose confirm galactose and mannose as potential substrates

X-ray crystal structure, 2.4 Å (STP10 [3]): contains unambiguous density for glucose | Kd (STP10 [4]): 3.2 µM
SMILES: OC[C@H]1OC(O)[C@H](O)[C@@H](O)[C@@H]1O (some centres unmarked) [glucose]

SMILES: OC[C@H]1OC(O)[C@@H](O)[C@@H](O)[C@@H]1O (some centres unmarked) [mannose]
competition (STP10 [2]): Competition assays using radioactively labeled glucose confirm galactose and mannose as potential substrates

From publication PMC6345825, “Crystal structure of the plant symporter STP10 illuminates sugar uptake mechanism in monosaccharide transporter superfamily” (Nature Communications, 2019)
